This note sets out measurements from patent publication US9029536B2, “Fused heterocyclic compounds” (Takeda Pharmaceutical Company Limited, priority 2010, dated 2015).

Where a name gives a salt, the structure may show the parent alone.

Data set [1] deals with T1, Human PDE10A enzyme (Homo sapiens, UniProt Q9Y233).
T1 construct: Sf9 or COS-7 cells transfected with the full-length gene; His-tag; made in house; host or cells: Sf9 or COS-7 cells
Kind of data set: PDE enzyme inhibition (SPA, [3H]cGMP). To be noted: 1 μM compound, [3H]cGMP substrate. In kind it is biochemical. On the procedure: Human PDE10A enzyme was generated from Sf9 or COS-7 cells transfected with the full-length gene. Cloned enzyme was extracted from homogenized cell pellets. The extracted enzyme from sf9 cells was partially purified using His-tag affinity column. The enzyme was stored at −70° C. until use. PDE activity was measured using a SPA (Scintillation Proximity Assay) (GE Healthcare). To evaluate the inhibitory activity, 10 μL of serial diluted compounds were incubated with 20 μL of PDE enzyme in assay buffer (50 mM HEPES-NaOH, 8.3 mM MgCl2, 1.7 mM EGTA, 0.1% BSA (pH 7.4)) for 30 min. at room temperature. Final concentration of DMSO in the assay was 1 percent as compounds were tested in duplicate in 96-well half-area plates (Corning). To start the reaction, 10 μL of substrate [^3H] cGMP (25 or 50 nM; enclosed in SPA kits from GE Healthcare or purchased from PerkinElmer, respectively) was added for a final assay volume of 40 μL. After 60 min incubation at room temperature, yttrium SPA beads containing Zinc sulphate were added (20 μL at 6 mg/mL) to terminate the PDE reaction. After being settled for 60 min, assay plates were counted in a scintillation counter (PerkinElmer) to allow calculation of inhibition rate. Inhibition rate was calculated on the basis of 0% control wells with DMSO and 100% control wells without enzyme.

T1 sequence (Q9Y233 267-1055): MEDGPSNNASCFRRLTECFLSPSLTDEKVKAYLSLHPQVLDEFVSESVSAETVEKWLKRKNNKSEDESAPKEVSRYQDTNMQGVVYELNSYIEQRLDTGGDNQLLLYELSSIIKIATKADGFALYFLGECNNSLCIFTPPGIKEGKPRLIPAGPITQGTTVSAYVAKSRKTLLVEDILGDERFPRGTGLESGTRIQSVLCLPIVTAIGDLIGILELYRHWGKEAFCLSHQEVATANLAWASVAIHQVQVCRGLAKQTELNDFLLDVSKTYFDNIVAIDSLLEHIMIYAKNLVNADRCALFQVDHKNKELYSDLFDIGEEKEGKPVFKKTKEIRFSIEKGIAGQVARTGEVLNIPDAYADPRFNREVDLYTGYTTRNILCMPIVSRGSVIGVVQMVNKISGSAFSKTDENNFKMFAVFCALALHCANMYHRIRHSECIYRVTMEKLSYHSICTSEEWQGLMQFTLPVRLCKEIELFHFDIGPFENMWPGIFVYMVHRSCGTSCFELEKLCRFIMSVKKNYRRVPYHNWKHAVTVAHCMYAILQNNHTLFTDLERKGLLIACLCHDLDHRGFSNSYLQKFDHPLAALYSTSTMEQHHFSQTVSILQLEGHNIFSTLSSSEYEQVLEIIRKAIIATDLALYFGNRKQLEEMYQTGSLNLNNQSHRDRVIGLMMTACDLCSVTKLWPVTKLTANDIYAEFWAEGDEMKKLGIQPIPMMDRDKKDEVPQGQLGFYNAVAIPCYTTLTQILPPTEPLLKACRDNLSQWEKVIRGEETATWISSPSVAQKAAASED

For `Cn1cc(-c2ccc(Nc3nc4ccccc4o3)cc2)c2ncccc21` [Example 1, N-[4-(1-Methyl-1H-pyrrolo[3,2-b]pyridin-3-yl)phenyl]-1,3-benzoxazol-2-amine hydrochloride], the inhibition at 1 µM in data set [1] came to 97.6%.
With `CCn1nc(-c2ccc(Oc3nc4ccccc4[nH]3)cc2)c2ncccc21` [Example 3, 3-[4-(1H-Benzimidazol-2-yloxy)phenyl]-1-ethyl-1H-pyrazolo[4,3-b]pyridine], the inhibition at 1 µM in data set [1] stood at 97.7%.
For the compound `CCn1nc(-c2ccc(Oc3nc4ccccc4n3C)cc2)c2ncccc21` [Example 4, 1-Ethyl-3-{4-[(1-methyl-1H-benzimidazol-2-yl)oxy]phenyl}-1H-pyrazolo[4,3-b]pyridine], in data set [1], the inhibition at 1 µM was 98.7%.
`CCn1nc(-c2ccc(C(=O)c3nc4ccccc4n3C)cc2)c2ncccc21` [Example 6, [4-(1-Ethyl-1H-pyrazolo[4,3-b]pyridin-3-yl)phenyl] (1-methyl-1H-benzimidazol-2-yl)methanone]: the inhibition at 1 µM in data set [1] is 95%.
`CCn1nc(-c2ccc3c(c2)CCN3c2nc3ccccc3[nH]2)c2ncccc21` [Example 7, 3-[1-(1H-Benzimidazol-2-yl)-2,3-dihydro-1H-indol-5-yl]-1-ethyl-1H-pyrazolo[4,3-b]pyridine]: the inhibition at 1 µM in data set [1] was 101%.
Take `CCn1nc(-c2ccc(Oc3cn4ccccc4n3)cc2)c2ncccc21` [Example 8, 1-Ethyl-3-[4-(imidazo[1,2-a]pyridin-2-yloxy)phenyl]-1H-pyrazolo[4,3-b]pyridine hydrochloride]: the inhibition at 1 µM in data set [1] was determined as 100%.
Turning to `CCn1nc(-c2ccc(Oc3nc4ccccc4[nH]3)nc2)c2ncccc21` [Example 10, 3-[6-(1H-Benzimidazol-2-yloxy)pyridin-3-yl]-1-ethyl-1H-pyrazolo[4,3-b]pyridine], the inhibition at 1 µM in data set [1] was 99%.
As to `c1ccc2[nH]c(Oc3ccc(-c4c5n(c6cccnc46)CCCC5)cc3)nc2c1` [Example 13, 10-[4-(1H-Benzimidazol-2-yloxy)phenyl]-6,7,8,9-tetrahydropyrido[2,3-b]indolizine], the melting point was 264 °C (dec.). In addition, in data set [1], the inhibition at 1 µM was determined as 103%.
On to `CCn1nc(-c2ccc(Oc3nc4cccnc4n3C)cc2)c2ncccc21` [Example 14, 1-Ethyl-3-{4-[(3-methyl-3H-imidazo[4,5-b]pyridin-2-yl)oxy]phenyl}-1H-pyrazolo[4,3-b]pyridine], for which the melting point lay in the range of 176 to 177 °C.
`CC(C)n1nc(-c2ccc(Oc3nc4cccnc4n3C)cc2)c2ncccc21` [Example 18, 1-(1-Methylethyl)-3-{4-[(3-methyl-3H-imidazo[4,5-b]pyridin-2-yl)oxy]phenyl}-1H-pyrazolo[4,3-b]pyridine] displayed a melting point of 163 to 164 °C. Further, the inhibition at 1 µM in data set [1] came to 100%.
Consider `CCn1nc(-c2ccc(C3CCn4c3nc3ccccc34)cc2)c2ncccc21` (centres unmarked) [Example 24, 3-[4-(1-Ethyl-1H-pyrazolo[4,3-b]pyridin-3-yl)phenyl]-2,3-dihydro-1H-pyrrolo[1,2-a]benzimidazole], for which the inhibition at 1 µM in data set [1] worked out at 99%.
Compound `CCn1nc(-c2ccc(Oc3nc4cccnc4n3C)cc2)c2nccnc21` [Example 28, 1-Ethyl-3-{4-[(3-methyl-3H-imidazo[4,5-b]pyridin-2-yl)oxy]phenyl}-1H-pyrazolo[3,4-b]pyrazine] showed a melting point of 161 to 162 °C. Moreover, in data set [1], the inhibition at 1 µM came to 101%.
The compound `CCn1nc(-c2ccc(Oc3nc4ccccc4n3CCO)cc2)c2ncccc21` [Example 29, 2-{2-[4-(1-Ethyl-1H-pyrazolo[4,3-b]pyridin-3-yl)phenoxy]-1H-benzimidazol-1-yl}ethanol] yielded a melting point of 183 to 184 °C.
As to `CCn1nc(-c2ccc(Oc3nc4cccnc4n3CCOC)cc2)c2ncccc21` [Example 34, 1-Ethyl-3-(4-{[3-(2-methoxyethyl)-3H-imidazo[4,5-b]pyridin-2-yl]oxy}phenyl)-1H-pyrazolo[4,3-b]pyridine], in data set [1], the inhibition at 1 µM came out at 105%.
Still for that read-out and setting: the result for `COCCn1c(Oc2ccc(-c3nn(C(C)C)c4cccnc34)cc2)nc2cccnc21` [Example 35] reads 93%.
For `CCn1nc(-c2ccc(Oc3nc4ccccc4n3CC(C)(C)O)cc2)c2ncccc21` [Example 36, 1-{2-[4-(1-Ethyl-1H-pyrazolo[4,3-b]pyridin-3-yl)phenoxy]-1H-benzimidazol-1-yl}-2-methylpropan-2-ol], the melting point was in the range of 152 to 153 °C. For the same compound, in data set [1], the inhibition at 1 µM amounted to 99%.
Regarding `CCn1nc(-c2ccc(Oc3nc4cccnc4n3C)cc2)c2ncc(F)cc21` [Example 37, 1-Ethyl-6-fluoro-3-{4-[(3-methyl-3H-imidazo[4,5-b]pyridin-2-yl)oxy]phenyl}-1H-pyrazolo[4,3-b]pyridine], in data set [1], the inhibition at 1 µM is 101%.
As to `CCn1nc(-c2ccc(Oc3nc4cccnc4n3C)cc2)c2ncncc21` [Example 38, 1-Ethyl-3-{4-[(3-methyl-3H-imidazo[4,5-b]pyridin-2-yl)oxy]phenyl}-1H-pyrazolo[4,3-d]pyrimidine], the melting point was in the range of 218 to 220 °C. For the same compound, the inhibition at 1 µM in data set [1] was found to be 103%.
On to `Cn1c(Oc2ccc(-c3nn(CC(F)F)c4cccnc34)cc2)nc2cccnc21` [Example 39, 1-(2,2-Difluoroethyl)-3-{4-[(3-methyl-3H-imidazo[4,5-b]pyridin-2-yl)oxy]phenyl}-1H-pyrazolo[4,3-b]pyridine], for which the inhibition at 1 µM in data set [1] is 102%.
For the compound `CC(C)n1nc(-c2ccc(Oc3nc4cccnc4n3C)cc2)c2ncc(F)cc21` [Example 40, 6-Fluoro-1-(1-methylethyl)-3-{4-[(3-methyl-3H-imidazo[4,5-b]pyridin-2-yl)oxy]phenyl}-1H-pyrazolo[4,3-b]pyridine], in data set [1], the inhibition at 1 µM is 101%.
For the compound `Cn1nc(-c2ccc(Oc3nc4cccnc4n3C)cc2)c2ncccc21` [Example 44, 1-Methyl-3-{4-[(3-methyl-3H-imidazo[4,5-b]pyridin-2-yl)oxy]phenyl}-1H-pyrazolo[4,3-b]pyridine], in data set [1], the inhibition at 1 µM is 107%.
For `Cn1nc(-c2ccc(Oc3nc4cccnc4n3C)cc2)c2ncc(F)cc21` [Example 45, 6-Fluoro-1-methyl-3-{4-[(3-methyl-3H-imidazo[4,5-b]pyridin-2-yl)oxy]phenyl}-1H-pyrazolo[4,3-b]pyridine], the inhibition at 1 µM in data set [1] turned out to be 95%.
With `CCn1nc(-c2ccc(Oc3nc4cccnc4n3CCOC)cc2)c2ncc(F)cc21` [Example 48, 1-Ethyl-6-fluoro-3-(4-{[3-(2-methoxyethyl)-3H-imidazo[4,5-b]pyridin-2-yl]oxy}phenyl)-1H-pyrazolo[4,3-b]pyridine], the inhibition at 1 µM in data set [1] is 104%.
As to `COCCn1c(Oc2ccc(-c3nn(CC(F)F)c4cc(F)cnc34)cc2)nc2cccnc21` [Example 49, 1-(2,2-Difluoroethyl)-6-fluoro-3-(4-{[3-(2-methoxyethyl)-3H-imidazo[4,5-b]pyridin-2-yl]oxy}phenyl)-1H-pyrazolo[4,3-b]pyridine], the inhibition at 1 µM in data set [1] came out at 103%.
For the compound `COCCn1c(Oc2ccc(-c3nn(C)c4cc(F)cnc34)cc2)nc2cccnc21` [Example 50, 6-Fluoro-3-(4-{[3-(2-methoxyethyl)-3H-imidazo[4,5-b]pyridin-2-yl]oxy}phenyl)-1-methyl-1H-pyrazolo[4,3-b]pyridine], the inhibition at 1 µM in data set [1] amounted to 100%.
As to `Cn1c(Oc2ccc(-c3nn(CC(F)F)c4cc(F)cnc34)cc2)nc2cccnc21` [Example 51], the inhibition at 1 µM in data set [1] is 102%.
In the case of `COCCn1c(Oc2ccc(-c3nn(CC(F)F)c4cccnc34)cc2)nc2cccnc21` [Example 52, 1-(2,2-Difluoroethyl)-3-(4-{[3-(2-methoxyethyl)-3H-imidazo[4,5-b]pyridin-2-yl]oxy}phenyl)-1H-pyrazolo[4,3-b]pyridine], the inhibition at 1 µM in data set [1] was found to be 101%.
